Experimental data as given in patent publication US7071383B2, “Chimeric genes and methods for increasing the lysine and threonine content of the seeds of plants” (E. I. du Pont de Nemours and Company, priority 1992, dated 2006).
Where “and” joins values, the source holds several entries; their conditions need not be identical. Identical values can stand only once.

Key:
tobacco DHDPS = assay: DHDPS enzyme assay of plant extracts, sensitivity to lysine; type: biochemical
Protocol: The leaf extracts were assayed for DHDPS activity as described in Example 4.
To test this hypothesis, total protein extracts were prepared from mature seeds and assayed for DHDPS activity. Approximately 30-40 mg of seeds were put into a 1.5 mL disposable plastic microfuge tube and ground in 0.25 mL of 50 mM Tris-HCl, 50 mM NaCl, 1 mM EDTA (TNE). The grinding was done using a motorized grinder with disposable plastic shafts designed to fit into the microfuge tube. The resultant suspensions were centrifuged for 5 min at room temperature in a microfuge to remove particulates. Approximately 0.1 mL of aqueous supernatant was removed between the pelleted material and the upper oil phase. The seed extracts were assayed for DHDPS activity as described in Example 4.
To assay for expression of the chimeric genes in leaves of the transformed plants, protein was extracted as described in Example 7 for AKIII, and as described in Example 9 for DHDPS. The leaf extracts were assayed for DHDPS activity as described in Examples 4 and 9. […] Extracts were characterized immunologically for expression of AKIII and DHDPS proteins via Western blots as described in Examples 7 and 10.

DE126 = assay: Growth inhibition by L-lysine in synthetic medium; type: cell-based, E. coli
Protocol: (4) This step involves production of a male derivative of strain DE125. Strain DE125 was mated with the male strain AB1528 [F′16/delta(gpt-proA)62, lacY1 or lacZ4, glnV44, galK2 rac^−(?), hisG4, rfbd1, mgl-51, kdgK51(?), ilvC7, argE3, thi-1] (E. coli Genetic Stock Center #1528) by the method of conjugation. F′16 carries the ilvGMEDAYC gene cluster. The two strains were cross streaked on rich medium permissive for the growth of each strain. After incubation, the plate was replica plated to a synthetic medium containing tetracycline, arginine, vitamin B1 and glucose. DE125 cannot grow on this medium because it cannot synthesize isoleucine. Growth of AB1528 is prevented by the inclusion of the antibiotic tetracycline and the omission of proline and histidine from the synthetic medium. A patch of cells grew on this selective medium. These recombinant cells underwent single colony isolation on the same medium. The phenotype of one clone was determined to be Ilv^+, Arg^−, TetR, Lysine-sensitive, male specific phage (MS2)-sensitive, consistent with the simple transfer of F′16 from AB1528 to DE125. This clone was designated DE126 and has the genotype F′16/malE52::Tn10, arg^−, ilvA296, thrA1101, metL100, lysC^+, λ^−, rpsL9, malT1, xyl-7, mtl-2, thi-1?, supE44?. It is inhibited by 20 μg/mL of L-lysine in a synthetic medium.

Corynebacterium DHDPS = target: T1, Corynebacterium DHDPS (Corynebacterium glutamicum, UniProt P19808); assay: DHDPS enzyme assay, sensitivity to L-lysine; type: biochemical; conditions: 70 mM L-lysine
T1 construct: made in house; host or cells: E. coli BL21(DE3), supernatant of uninduced extract
T1 sequence (P19808 other isoform, or with tags, fused parts or gaps): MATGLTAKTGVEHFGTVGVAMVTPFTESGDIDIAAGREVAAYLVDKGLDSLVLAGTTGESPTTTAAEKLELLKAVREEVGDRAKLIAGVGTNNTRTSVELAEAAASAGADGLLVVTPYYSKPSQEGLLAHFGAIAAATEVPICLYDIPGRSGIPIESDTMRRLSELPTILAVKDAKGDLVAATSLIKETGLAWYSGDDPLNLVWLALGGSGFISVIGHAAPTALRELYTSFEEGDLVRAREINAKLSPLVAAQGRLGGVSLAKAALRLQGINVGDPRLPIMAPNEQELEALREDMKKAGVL
Protocol: (§1) DHDPS enzyme activity was assayed as follows: Assay mix (for 10×1.0 mL assay tubes or 40×0.25 mL for microtiter dish); made fresh, just before use:
(§2) Color allowed to develop for 30-60 min. Precipitate spun down in eppendorf centrifuge. OD540 vs 0 min read as blank. For MicroAssay, aliquot 0.2 mL into microtiter well and read at OD530.
E. coli DHDPS was sensitive to the presence of L-lysine in the assay. Fifty percent inhibition was found at a concentration of about 0.5 mM. For Corynebacterium DHDPS, the activity was measured in the supernatant fraction of uninduced extracts, rather than induced extracts. Enzyme activity was about 4 OD530 units per min per milligram protein in a 0.25 mL assay.

E. coli DHDPS = target: T2, E. coli DHDPS (Escherichia coli, UniProt P0A6L2, F2V); assay: biochemical; type: biochemical
T2 construct: the chloroplast targeting signal fused to the entire ecodapA coding region; expressed in transfected cells; host or cells: transgenic tobacco plants, leaf extracts (35S promoter) or mature seed extracts (phaseolin promoter)
T2 sequence (P0A6L2 whole entry F2V, the tested form may be a part): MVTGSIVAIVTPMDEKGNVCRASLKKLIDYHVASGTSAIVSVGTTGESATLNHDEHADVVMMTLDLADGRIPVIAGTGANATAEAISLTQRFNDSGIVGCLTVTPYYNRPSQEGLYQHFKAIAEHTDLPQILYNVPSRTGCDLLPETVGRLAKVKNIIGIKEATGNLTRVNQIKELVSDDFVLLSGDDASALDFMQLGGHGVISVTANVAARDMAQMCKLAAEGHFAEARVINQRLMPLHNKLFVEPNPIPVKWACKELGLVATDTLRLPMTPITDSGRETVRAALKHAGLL
Protocol: as §1, §2
For Corynebacterium DHDPS, the activity was measured in the supernatant fraction of uninduced extracts, rather than induced extracts.

[1] = test system: Gif106M1 transformed with pBT436; assay: Growth inhibition by lysine in M9 media; type: cell-based, E. coli
Protocol: Addition of lysine (or diaminopimelate which is readily converted to lysine in vivo) at a concentration of approximately 0.2 mM to the growth medium inhibits the growth of Gif106M1 transformed with pBT436. M9 media [see Sambrook et al. (1989) Molecular Cloning, A Laboratory Manual, Cold Spring Harbor Laboratory Press] supplemented with the arginine and isoleucine, required for Gif106M1 growth, and ampicillin, to maintain selection for the pBT436 plasmid, was used. This inhibition is reversed by addition of threonine plus methionine to the growth media. […] This property of pBT436-transformed Gif106M1 was used to select for mutations in lysC that encoded lysine-insensitive AKIII.

AKIII-M2 = target: T3, AKIII-M2 (Escherichia coli, UniProt P08660, G401A/M318I); assay: AK enzyme assay, sensitivity to L-lysine; type: biochemical, E. coli; conditions: 15 mM L-lysine
T3 construct: made in house; host or cells: E. coli BL21(DE3), crude extract
T3 sequence (P08660 other isoform, or with tags, fused parts or gaps M318I/G401A): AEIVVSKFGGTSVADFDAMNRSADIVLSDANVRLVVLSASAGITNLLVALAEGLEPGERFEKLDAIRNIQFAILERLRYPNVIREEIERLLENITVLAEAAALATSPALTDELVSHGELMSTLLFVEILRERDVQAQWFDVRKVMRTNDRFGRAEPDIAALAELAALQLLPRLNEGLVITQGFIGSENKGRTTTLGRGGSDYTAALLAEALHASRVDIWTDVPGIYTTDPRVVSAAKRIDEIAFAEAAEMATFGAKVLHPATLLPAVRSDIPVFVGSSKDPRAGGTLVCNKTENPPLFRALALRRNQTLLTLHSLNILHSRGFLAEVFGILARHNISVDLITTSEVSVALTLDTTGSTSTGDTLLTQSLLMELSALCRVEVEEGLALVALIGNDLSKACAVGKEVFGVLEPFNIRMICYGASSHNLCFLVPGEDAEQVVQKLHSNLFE
Protocol: (§3) AK activity was assayed as shown below:
(§4) Assay mix (for 12 assay tubes): • 4.5 mL H2O • 1.0 mL 8M KOH • 1.0 mL 8M NH2OH-HCl • 1.0 mL IM Tris-HCl pH 8.0 • 0.5 mL 0.2M ATP (121 mg/mL in 0.2M NaOH) • 50 μL 1M MgSO4
(§5) Each 1.5 mL eppendorf assay tube contained: • 0.64 mL assay mix • 0.04 mL 0.2 M L-aspartic acid or 0.04 mL H2O • 0.0005-0.12 mL extract • H2O to total volume 0.8 mL
(§6) Assay tubes were incubated at 30° C. for desired time (10-60 min). Then 0.4 mL FeCl3 reagent (10% w/v FeCl3, 3.3% trichloroacetic acid, 0.7 M HCl) was added and the material centrifuged for 2 min in an eppendorf centrifuge. The supernatant was decanted. The OD was read at 540 nm and compared to the aspartyl-hydroxamate standard.
(§7) Approximately 80% of the AKIII activity was in the supernatant fraction. The specific activity of wild type and mutant crude extracts was 5-7 μM product per min per milligram total protein. Wild type AKIII was sensitive to the presence of L-lysine in the assay.

AKIII-M4 = target: T4, AKIII-M4 (Escherichia coli, UniProt P08660, G401A/T352I); assay: AK enzyme assay, sensitivity to L-lysine; type: biochemical, E. coli; conditions: 15 mM L-lysine
T4 construct: made in house; host or cells: E. coli BL21(DE3), crude extract
T4 sequence (P08660 other isoform, or with tags, fused parts or gaps T352I/G401A): as the sequence (P08660 other isoform, or with tags, fused parts or gaps M318I/G401A) above, with I317M, T351I counted along it
Protocol: as §3, §4, §5, §6, §7

AKIII-M3 = target: T5, AKIII-M3 (Escherichia coli, UniProt P08660, G401A/T352I); assay: AK enzyme assay, sensitivity to L-lysine; type: biochemical, E. coli; conditions: 15 mM L-lysine
T5 construct: made in house; host or cells: E. coli BL21(DE3), crude extract
T5 sequence (P08660 other isoform, or with tags, fused parts or gaps T352I/G401A): as the sequence (P08660 other isoform, or with tags, fused parts or gaps M318I/G401A) above, with I317M, T351I counted along it
Protocol: as §3, §4, §5, §6, §7

Wild type AKIII = target: T6, Wild type AKIII (Escherichia coli, UniProt P08660, G401A); assay: AK enzyme assay, sensitivity to L-lysine; type: biochemical, E. coli
T6 construct: the coding region of the wild type E. coli lysC gene, which encodes AKIII; made in house; host or cells: E. coli BL21(DE3), supernatant of crude extract
T6 sequence (P08660 other isoform, or with tags, fused parts or gaps G401A): as the sequence (P08660 other isoform, or with tags, fused parts or gaps M318I/G401A) above, with I317M counted along it
Protocol: as §3, §4, §5, §6, §7

NCCCC[C@H](N)C(=O)O [L-lysine]
inhibition by lysine (tobacco DHDPS; 0.1 mM lysine, leaf extracts): completely inhibited | inhibition by lysine (tobacco DHDPS; 0.4 mM lysine, seed extracts): completely inhibited | concentration that inhibits growth (DE126): 20 µg/mL | inhibition by L-lysine (Corynebacterium DHDPS): not inhibited at all | IC50 (E. coli DHDPS): ~500 µM | activity retained (E. coli DHDPS; 0.1 mM lysine, leaf extracts): 80-90% | activity retained (E. coli DHDPS; 0.4 mM lysine, seed extracts): about 50% | fold less sensitive to inhibition by lysine than a typical plant DHDPS (E. coli DHDPS; vs wheat germ DHDPS): about 20 fold | concentration in growth medium that inhibits growth [1]: approximately 0.2 mM | inhibition by L-lysine (AKIII-M2): not inhibited at all | inhibition by L-lysine (AKIII-M4): not inhibited at all | inhibition by L-lysine (AKIII-M3): not inhibited at all | inhibition of wild type AKIII (Wild type AKIII; 1 mM lysine): > 90% | IC50 (Wild type AKIII; L-lysine concentration for fifty percent inhibition of AKIII, crude extract): ~400 µM and 300 to 400 µM
